The values that follow come from PMC11744575 (Advanced Science, 2024).

Data set [1] in a line: Pharmacokinetic profile of BBR and 6-OH-BBR in db/db and lean mice (plasma, liver). Type of data set: in vivo, mouse. Here is the method:
Briefly, blood samples (50 µL) were collected at different time points post‐drug administration (no more than three collections per mouse), centrifuged at 4 °C and 8000 g for 5 min, and the upper plasma layer was collected. At 2 and 24 h post‐dosing, the mice were sacrificed, and liver tissues were collected for cryopreservation and prepared as homogenates (W/V: 0.1 g·mL^−1) for drug concentration determinations.
(§1) Briefly, proteins in the samples were precipitated with three volumes of methanol containing an internal standard (chlorophenylalanine). After centrifugation at 30 000 g for 10 min at 4 °C, the supernatant was injected into the LC‐MS/MS system for analysis. Chromatographic separation was conducted using a ZORBAX 300SB C18 column (100 × 2.1 mm, 3.5 µm, Agilent, CA, USA) at 40 °C on a Shimadzu HPLC system.

The subject of data set [2] is Primary cultured mouse hepatocytes. The data set is described as follows: Cell viability (CCK8) cytotoxicity assay. It is filed as cell-based. The source says: C) BODIPY staining in different groups; images are shown under 600× or 1800× magnification, scale bar = 100 µm. D) Flow scheme of RNA sequencing.
Primary hepatocytes were isolated from the livers of 6‐week‐old male C57BL/6J mice as previously described.^[ [25] ^] Briefly, the liver was thoroughly digested by injection of type IV collagenase (C4‐BIOC, Sigma‐Aldrich, Louis, MO, USA) via the portal vein. The perfused liver was excised, dispersed, and filtered through a 70 µm filter, and the digestion was terminated by adding cold Dulbecco's modified Eagle's medium (DMEM, #11 960 044, Gibco, Grand Island, NY, USA). The cell suspension was centrifuged at 4 °C at 50 g for 5 min to remove the supernatant and debris. An equal volume of DMEM and Percoll (CAS 65455‐52‐9, Sigma‐Aldrich) was then mixed thoroughly and centrifuged at 50 g for 15 min at 4 °C. The viable cell layer at the bottom was collected and further centrifuged in DMEM to prepare the cell seeding plate. Cells were seeded in a 6‐well plate at a density of 1 × 10^6 cells per well and cultured in DMEM medium supplemented with 10% fetal bovine serum (FBS, Gibco) at 37 °C in a 5% CO2 incubator.

Another data set has as its system primary hepatocytes. The data set can be described thus: Intracellular triglyceride content and BODIPY staining in primary hepatocytes. The note with it: for effect of co-incubation on triglyceride levels within BBR-treated hepatocytes: co-incubation with BBR in the presence of OA. It is filed as cell-based, mouse. The protocol:
To establish an in vitro model of hepatic steatosis, hepatocytes were treated with 0.2 mM oleic acid (OA, O7501, Sigma‐Aldrich) for 16 h. OA was pre‐incubated with 10% bovine serum albumin (BSA, Sigma‐Aldrich) (1:4) for 1 h and then added to the cell culture medium along with different compounds.
Primary hepatocytes were washed three times with phosphate‐buffered saline (PBS) and then subjected to three repeated freeze‐thaw cycles. The released intracellular triglyceride content was then measured using a commercial assay kit (Jiancheng). Protein content was used for normalization.
The lipid droplets in the hepatocytes in 6‐well plates were visualized by first washing the cells and then immersing them in a serum‐free medium. Subsequently, […] BODIPY 493/503 (Sigma‐Aldrich) was added to the medium, and the cells were incubated for 20 min for staining, followed by imaging with confocal microscopy (Olympus, Tokyo, Japan).

Data set [3] concerns the target T1, recombinant human PPARγ protein (Homo sapiens, UniProt P37231).
T1 construct: purchased Sino Biotechnology, Beijing, China
T1 sequence (P37231 1-505): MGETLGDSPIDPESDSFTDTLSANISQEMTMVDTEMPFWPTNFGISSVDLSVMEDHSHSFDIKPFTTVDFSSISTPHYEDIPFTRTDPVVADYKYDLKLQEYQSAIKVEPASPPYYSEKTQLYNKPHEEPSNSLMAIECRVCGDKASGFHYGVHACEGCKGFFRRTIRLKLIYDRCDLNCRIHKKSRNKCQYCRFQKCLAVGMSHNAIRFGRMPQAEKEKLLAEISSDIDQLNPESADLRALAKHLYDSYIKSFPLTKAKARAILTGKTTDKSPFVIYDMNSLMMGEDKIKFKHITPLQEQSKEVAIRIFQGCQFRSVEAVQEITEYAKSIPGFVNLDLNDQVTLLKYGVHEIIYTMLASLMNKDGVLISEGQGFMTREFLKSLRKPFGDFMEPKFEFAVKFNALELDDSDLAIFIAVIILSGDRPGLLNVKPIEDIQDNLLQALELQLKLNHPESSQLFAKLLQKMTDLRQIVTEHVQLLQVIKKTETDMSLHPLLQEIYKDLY
The data set is described as follows: MicroScale Thermophoresis (MST) of rosiglitazone binding with/without BBR. The note with it: rosiglitazone affinity in presence/absence of BBR. (In general: Microscale thermophoresis detects binding through changes in fluorescence in a small temperature gradient.)

The subject of a further data set is db/db mice. The data set can be described thus: 4-week administration in db/db mice (liver injury, steatosis, glucose profiles). Type of data set: in vivo, mouse.
A short description of data set [4]: BBR metabolism kinetics with liver S9 fractions. Type of data set: in vitro ADME, mouse. The following applies: for Km at 2 h: mouse, liver S9 fraction. The protocol:
The incubations were carried out for 2 h at 37 °C in a 100 µL reaction volume containing the pooled liver S9 fraction (7.5 mg·mL^−1) and an NADPH‐regenerating system consisting of MgCl2 (40 mM), glucose‐6‐phosphate (40 µM), NADP^+ (8 µM), and glucose 6‐phosphate dehydrogenase (4 U·mL^−1). The reactions were terminated by the addition of 300 µL of ice‐cold acetonitrile containing the internal standard (chlorophenylalanine), followed by rigorous mixing and centrifugation. The supernatants were subsequently analyzed by LC‐MS/MS, employing methodologies detailed in previous publications.^[ [27] ^]
as §1

The subject of another data set is livers of healthy rats. The arrangement: method as in PMID 1701930. The note with it: up to 102 weeks of treatment; cited from earlier work.
Data set [5] deals with peroxisome proliferator‐activated receptor alpha (PPARα). The arrangement: method as in PMID 18274627. The following applies: cited from earlier work.
For data set [6], the system named is peroxisome proliferator‐activated receptor gamma (PPARγ). Also on record: method as in PMID 18274627. The following applies: cited from earlier work.
A further data set relates to obese mice models. The arrangement: method as in PMID 29526820. The note with it: no comparable liver damage in healthy lean mice; cited from earlier work.
The next data set has as its system PPARγ target genes. The data set is described as follows: qPCR of PPARγ target genes in primary hepatocytes. It is filed as cell-based, mouse. The following applies: co-incubation with BBR. The protocol: Tissues or cells were lysed using TRIzol (#1 218 355, Invitrogen, Thermo Fisher Scientific, MA, USA) for subsequent RNA extraction through a series of steps involving chloroform extraction and isopropanol and ethanol precipitation. Reverse transcription and cDNA synthesis were performed using a reverse transcription and cDNA synthesis kit (#639 506, Takara Bio Inc., Kusatsu, Shiga, Japan) to synthesize complementary DNA (cDNA) from […] of RNA. Quantitative real‐time PCR analysis was conducted utilizing SYBR Green pre‐mix (Q111‐02, Vazyme Biotech Co., Ltd, Nanjing, China) and subsequently analyzed employing the Roche real‐time PCR system. The mRNA expression levels were calculated and quantified utilizing the relative standard curve method and subsequently normalized to the expression of the housekeeping gene Gapdh. The primer sequences utilized for qPCR analysis are listed in Table S2 (Supporting Information).
Background: In qPCR the cycle at which signal appears reflects the starting amount.

Substrate in data set [7]: CC(=O)Nc1ccc(O)cc1
The data set is described as follows: Enzyme kinetic study in liver S9, Cyp1a2. Type of data set: in vitro ADME, mouse. The following applies: 37.0 °C.

[8] abbreviates: db/db mice compared to lean littermates after BBR 20 mg·kg^−1 i.g.
[9] abbreviates: 25 mg·kg^−1 gavage once daily, 4 weeks.
Setting [10] is: db/db vs lean mice, single 20 mg·kg^−1 i.g.

As for `CCc1oc2cc(O)ccc2c1C(=O)c1cc(Br)c(O)c(Br)c1` [6‐OH‐BBR, 6‐hydroxy‐benzbromarone], in data set [1] (setting [8]), the “liver concentration at 24 h, db/db vs lean” value is on record as “significantly higher” and the “plasma concentration-time profile (metabolite production)” value is listed as “delayed production”.

For orientation: Km means the substrate concentration at which the rate is half of its maximum. Regarding `CCc1oc2ccccc2c1C(=O)c1cc(Br)c(O)c(Br)c1` [BBR, Benzbromarone], the “cytotoxicity at dosages chosen for further experiments” value in data set [2] (15 and 30 µM) is reported as “non‐toxic”. Besides, in data set [2] (Mus musculus, Hepatocyte, read-out: 50% inhibitory concentration (IC50), cell viability, 24 h incubation, CCK8), the IC50 came out at 80.3 µM. Moreover, in the data set with primary hepatocytes (oleic acid (OA)-treated hepatocytes, 16 h), the “lipid accumulation (intracellular triglyceride, BODIPY lipid droplets)” value was “obviously enhanced”. Moreover, the “nature of BBR binding against the PPARγ agonist rosiglitazone (MST)” value in [3] is “competitive”. In the data set on db/db mice (setting [9]), the “liver weight, serum transaminases, and creatinine levels” value was “increases”; the “serum triglyceride and non-esterified fatty acid (NEFA) levels” value was “reductions”. Besides, in the data set on db/db mice (4-week treatment), the “fasting plasma glucose levels” value is recorded as “significantly decreased”; the glucose tolerance result is listed as “improved”; the liver triglyceride levels result is recorded as “elevation”; the “pyruvate tolerance and insulin sensitivity” value is on record as “diminished”. Also, the “liver concentration at 2 h post-administration” value in [1] (db/db mouse livers vs lean littermates, 20 mg·kg^−1 i.g.) is “notably higher”. Also, in data set [1] (setting [10]), the “decrease in clearance rate (CL)” value was found to be 42.5%; the “increase in area under the curve (AUC), plasma” value is 1.75 fold; the “increase in mean residence time (MRT)” value was 1.54 fold; the “increase in plasma half-life (T1/2)” value was 2.03 fold. Further, the “liver concentration at 24 h” value in [1] (liver tissues of both groups (db/db and lean), 20 mg·kg^−1 i.g.) is recorded as “undetectable”. Moreover, the “metabolism catalyzed by liver S9 fractions” value in data set [4] (S9 from db/db mice compared to lean mice) was “marked reduction”. In addition, in data set [4] (lean littermates of db/db mice, liver S9 from Lean mice), the Km at 2 h was 8.14 µg/mL. For the same molecule, the Km at 2 h in data set [4] (liver S9 from db/db mice) turned out to be 9.24 µg/mL. Also, the “hepatotoxicity in the livers of healthy rats” value with livers of healthy rats is “negligible hepatotoxicity”. In addition, in data set [5], the “binding affinity for PPARα” value is “weak binding affinity”. The “binding affinity for PPARγ” value in data set [6] is on record as “weak binding affinity”. For the same molecule, the “hepatic steatosis and liver injury” value with obese mice models was “specifically exacerbates”.

Regarding `CCC(=O)NC[C@H](Cc1ccc(OCCc2nc(-c3ccccc3)oc2C)cc1)N/C(C)=C\C(=O)c1ccc(C(F)(F)F)cc1` [GW6471], the “effect of co-incubation on triglyceride levels within BBR-treated hepatocytes” value (“effect of co-incubation” below) in the data set with primary hepatocytes was “failed to mitigate”.

In the case of `O=C(Nc1ccccc1)c1cc([N+](=O)[O-])ccc1Cl` [GW9662], the “effect of co-incubation” value in the data set on primary hepatocytes is “notable reduction”. For the same molecule, in the data set on PPARγ target genes, the “effect on BBR-induced upregulation of typical PPARγ target genes (mRNA)” value was “significantly diminished”. For the same molecule, the “effect on BBR-mediated exacerbation of hepatic steatosis and liver injury” value with db/db mice (1 mg·kg^−1 i.p. with BBR, 4 weeks) was “markedly mitigated”.

Regarding `Cc1ccc(Cn2nc(CCCc3ccc(OC(C)(C)C(=O)O)cc3)[nH]c2=O)cc1` [LY518674], the “effect of co-incubation” value in the data set on primary hepatocytes is “notable reduction”.

For the molecule `O=C(Nc1ccncc1)c1cc([N+](=O)[O-])ccc1Cl` [T0070907], the “effect of co-incubation” value in the data set with primary hepatocytes was “notable reduction”.

B1: Cyp1a2 (Mus musculus) (protein)
chain: MAFSQYISLAPELLLATAIFCLVFWMVRASRTQVPKGLKNPPGPWGLPFIGHMLTVGKNPHLSLTRLSQQYGDVLQIRIGSTPVVVLSGLNTIKQALVRQGDDFKGRPDLYSFTLITNGKSMTFNPDSGPVWAARRRLAQDALKSFSIASDPTSASSCYLEEHVSKEANHLVSKLQKAMAEVGHFEPVSQVVESVANVIGAMCFGKNFPRKSEEMLNIVNNSKDFVENVTSGNAVDFFPVLRYLPNPALKRFKTFNDNFVLFLQKTVQEHYQDFNKNSIQDITSALFKHSENYKDNGGLIPEEKIVNIVNDIFGAGFDTVTTAITWSILLLVTWPNVQRKIHEELDTVVGRDRQPRLSDRPQLPYLEAFILEIYRYTSFVPFTIPHSTTRDTSLNGFHIPKERCIYINQWQVNHDEKQWKDPFVFRPERFLTNNNSAIDKTQSEKVMLFGLGKRRCIGEIPAKWEVFLFLAILLQHLEFSVPPGVKVDLTPNYGLTMKPGTCEHVQAWPRFSK
notes: liver S9 fractions from db/db mice or their lean littermates; from tissue; host or cells: pooled liver S9 fraction of db/db mice or lean littermates
Take B1: the Km was 45.8 µM in [7] (other: Cyp1a2, pooled liver S9, Lean) and 32.5 µM in data set [7] (other: Cyp1a2, pooled liver S9, db/db).
